Data on seven compounds can be found in paper PMC5889910, “β-Carboline Silver Compound Binding Studies with Human Serum Albumin: A Comprehensive Multispectroscopic Analysis and Molecular Modeling Study” (Bioinorganic Chemistry and Applications, 2018).

Common to all, as to assay type: binding
Test [1] concerns the target T1, human serum albumin (HSA) (Homo sapiens, UniProt P02768).
T1 construct: I (residues 1–195), II (196–383), and III (384–585); purchased Sigma
Put plainly: Fluorescence quenching titration of HSA (Stern–Volmer analysis). The settings on record: for K SV, Stern–Volmer quenching constant: 20 mM phosphate buffer pH 7.4, 25°C, excitation 295 nm; for K q, bimolecular quenching rate constant: Kq = KSV/τ0, τ0 = 10^−8 s, 25°C; for ∆G, standard free energy change of binding: ΔG = −2.303 RT logK; for redshift at the maximal emission wavelength of Tyr and Trp residues of HSA: increasing compound concentration. The procedure:
(§1) The samples of HSA were prepared in 20 mM phosphate buffer (pH 7.4), whereas silver complexes (1 mM) stock solution were prepared in DMSO and further diluted in 20 mM phosphate buffer to reach the desired concentration. In all the samples, the final concentration of DMSO was not more than 1%. The concentration of HSA was determined using the Beer–Lambert law with the molar extinction coefficient of 36500 M^−1·cm^−1 at 280 nm. To study structural changes in HSA by the addition of [Ag(I)(Hnor)2](anion) compounds, the UV absorption spectra were measured, by variation of the concentration of the [Ag(I)(Hnor)2](anion) compounds, while keeping the concentration of HSA constant. UV absorption spectra, from 240 nm to 320 nm, were recorded on a Perkin–Elmer Lambda 45 spectrophotometer at 25°C. Quartz cuvettes of 1 cm path length were used for the measurements. Fluorescence measurements were performed on a Hitachi spectrofluorometer (Model F 7000) equipped with a PC. The fluorescence spectra were collected at 25°C with a path length cell of 1 cm. The slit width used was 5 nm with a protein concentration of 5 µM. The used excitation wavelength for the protein was 295 nm.
(§2) All the spectra were recorded after equilibration of the reaction mixture for 5 min.
The interaction between metal compounds and proteins has been widely investigated by using fluorescence spectroscopies. The luminescence response of HSA, upon addition of different concentrations of Ag(I) compounds, was studied in 20 mM phosphate buffer by using an emission titration experiment. Preliminary luminescence studies of the four starting Ag compounds 1–4 have been reported earlier by some of us. The excitation at 290 nm for all four compound results in a strong luminescence band at around 370 nm. The fluorescence studies of the ligand “Hnor” as well as the free silver salt, “AgNO3,” were also studied under the same conditions to compare the effect of separate entities with a combination of the two. Upon excitation at 295 nm, fluorescence intensity around 340 nm is known to reflect the changes of the tryptophan residue microenvironment. […] In Figure S3, similar data are presented for compounds 2–4, with only marginal differences upon anion variation.
The interaction of the Ag compounds with HSA was quantified; the Stern–Volmer equation has been employed:(1) F0/F=1+KSVQ=1+Kqτ0Q, where F 0 and F are the steady-state fluorescence intensities in the absence and presence of quencher at 340 nm, respectively. K sv is the Stern–Volmer quenching constant, K q stands for bimolecular quenching constant, τ 0 is the lifetime of the fluorophore in the absence of quencher, and [Q] is the concentration of quencher (i.e., the Ag compound). By calculating the quenching rate constants, K q, one can distinguish between the static quenching and the dynamic quenching, and this was evaluated by using the following equation:(2) Kq=KSV/τ0.
The value of tau(zero), τ 0, for biopolymers is known to be 10^−8 s. The Stern–Volmer quenching constant (K sv) for the fluorometric titration of the Ag(I) compounds into HSA solution was calculated from the linear relationship between F 0/F and [Ag(I)(Hnor)2]ClO4 (Figure 5) and enlisted in Table 1. In Figure S4, similar data are presented for compounds 2–4, confirming the above observations.
The equilibrium between free and bound molecules, when small molecules bind independently to a set of similar sites on a macromolecule, was ascertained by a modified Stern–Volmer equation [42]:(3) logF0−F/F=logK+n logQ, where K and n are the binding constant and the number of binding sites, respectively. A plot of log(F 0 − F/F) versus log[Q] was used to determine the value of K and n (inset in Figure 5). Several forces, like electrostatic, hydrogen bonds, weak van der Waals, hydrophobic, and steric contacts, can be thought of being responsible for the interaction between the albumin and Ag compounds. […]

The target of test [2] is T1, human serum albumin (HSA). Put plainly: Fluorescence quenching of HSA with addition of extra anions (KClO4, KNO3). The settings on record: for K SV / K, binding constant / n, number of binding sites: HSA 5 µM; for effect of anion salt alone on HSA structure: without Ag and Hnor, up to the concentration maximum used in the experiments. On the procedure: as §1
Given the fact that the highest anticancer activity and also the most substantial HSA interaction takes place in case of the perchlorate and nitrate salts, it was decided to add extra perchlorate (and also nitrate) for all cases and to study the effect on the binding affinity. So, we carried out two sets of experiments and studied the binding propensity of Ag(I) compounds with HSA. In one experiment, the extra ClO4 ^− anion was added in a 1 : 4 ratio, compared to the Ag compound. In a second experiment, we used additional nitrate together with the Ag(I) compounds. Details are given in Figures 6 and 7, and the quite similar details for the other 3 compounds are presented in Figures S5 and S6 in Supplementary Materials.
To determine the role of only the anions (i.e., without Ag and Hnor), we also used KClO4 and KNO3 and studied their HSA binding by adding variable amounts of anions to the concentration maximum used in the experiments. […] When the extra anions + compounds were titrated, the results obtained did show an exponential increase in binding affinity of the Ag(I) compounds.
The binding strength was evaluated by calculating the Stern–Volmer constant (K sv), a number of the binding sites (n) and Gibbs free energy (ΔG); (Table 2). […] However, no correlation with the size of these four anions is seen.

Test [3] has as its target T1, human serum albumin (HSA). Put plainly: UV absorption spectra of HSA with Ag(I) compounds. The settings on record: HSA 5 µM, with hyperchromism. The procedure: as §1, §2
Test [4] has as its target T1, human serum albumin (HSA). Put plainly: Far-UV circular dichroism of HSA, α-helix content. Further details: unit of the concentration uncertain. The settings on record: HSA 20 µM, free HSA 67.03. On the procedure: CD measurements were carried out on a Jasco spectropolarimeter (Model J-815) equipped with a microcomputer. The instrument was calibrated with D-10-camphorsulfonic acid. All the CD measurements were performed at 25°C with a thermostatically controlled cell holder, attached to a Neslab RTE-110 water bath with an accuracy of ±0.1°C. Spectra were collected with a scan speed of […] and a response time of 1 s. Each spectrum was taken as the average of three scans. The far-UV CD spectra were measured at a protein concentration of 20 µM at a path length of 1 cm.
as §2
The CD signal, expressed in millidegree, obtained over the wavelength range of 190–250 nm, was converted to a mean residue ellipticity (MRE, θ), using the following conversion:(5) MRE=θobs mdeg/10×n×Cp×l, where θ obs is the CD in millidegree, the number of amino acid residues (585) is given by n, “l” is the path length (cm), and C p is the molarity. The unit of MRE is deg·cm^2·dmol^−1.

Where [5] appears, read: modified Stern–Volmer equation, HSA 5 µM, pH 7.4, 25°C.
[6] abbreviates: Set A: +extra ClO4− (KClO4, 1:4 ratio).
Setting [7] is: Set B: +extra NO3− (KNO3, 1:4 ratio).
Setting [8] is: compound concentration 20 (unit uncertain).
Where [9] appears, read: compound concentration 40 (unit uncertain).
Where [10] appears, read: compound concentration 60 (unit uncertain).
The mark [11] stands for this setting: compound concentration 80 (unit uncertain).
The mark [12] stands for this setting: compound concentration 100 (unit uncertain).

T1 sequence (P02768 25-609): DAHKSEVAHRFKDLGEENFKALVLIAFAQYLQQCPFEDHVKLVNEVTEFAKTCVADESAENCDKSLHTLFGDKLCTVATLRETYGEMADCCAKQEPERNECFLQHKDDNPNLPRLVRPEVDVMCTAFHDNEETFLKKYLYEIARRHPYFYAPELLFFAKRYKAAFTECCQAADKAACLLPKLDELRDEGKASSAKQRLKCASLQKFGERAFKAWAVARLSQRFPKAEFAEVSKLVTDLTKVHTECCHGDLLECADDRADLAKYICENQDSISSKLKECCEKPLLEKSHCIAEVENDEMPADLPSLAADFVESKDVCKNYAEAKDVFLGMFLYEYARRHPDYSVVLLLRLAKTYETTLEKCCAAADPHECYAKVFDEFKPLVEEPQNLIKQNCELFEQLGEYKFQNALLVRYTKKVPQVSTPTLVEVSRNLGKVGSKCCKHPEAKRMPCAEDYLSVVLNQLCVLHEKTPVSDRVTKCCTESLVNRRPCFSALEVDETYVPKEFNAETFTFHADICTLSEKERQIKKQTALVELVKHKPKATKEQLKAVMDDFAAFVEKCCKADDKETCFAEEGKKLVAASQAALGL

In the case of `O=[N+]([O-])[O-].[Ag+]` [AgNO3, reference compound], in test [1] (HSA 5 µM), the “K SV, Stern–Volmer quenching constant” value is recorded as 3.10 10^5 M^−1 and the “K q, bimolecular quenching rate constant” value was 31.0 10^12 M^−1·s^−1. For the same compound, in test [1] (setting [5]), the “K, binding constant” value is given as 1.94 10^6 M^−1 and the “n, number of binding sites” value was determined as 1.1. Also, in test [1], the “∆G, standard free energy change of binding” value was -8.576 kcal/mol.

Regarding `F[B-](F)(F)F.[Ag+].c1ccc2c(c1)[nH]c1cnccc12.c1ccc2c(c1)[nH]c1cnccc12` [Compound 4, [Ag(Hnor)2](BF4)], the “K SV, Stern–Volmer quenching constant” value in test [1] (HSA 5 µM) is 3.97 10^5 M^−1. For the same compound, in test [1] (HSA 5 µM), the “redshift at the maximal emission wavelength of Tyr and Trp residues of HSA” value (“redshift … of Tyr and Trp residues of HSA” below) worked out at 4 nm. Besides, in test [1] (HSA 5 µM), the “K q, bimolecular quenching rate constant” value was 39.7 10^12 M^−1·s^−1. Besides, the “K, binding constant” value in test [1] (setting [5]) is given as 1.14 10^6 M^−1; in test [2] (setting [6]) it was 1.19 10^10 M^−1; in test [2] (setting [7]), 0.38 10^10 M^−1. Moreover, the “n, number of binding sites” value in test [1] (setting [5]) is given as 1.1; in test [2] (setting [6]) it was 1.69; in test [2] (setting [7]), 1.48. The “∆G, standard free energy change of binding” value in test [1] is -8.258 kcal/mol. Also, the “K SV” value in test [2] (setting [6]) is 1.85 10^7 M^−1; in test [2] (setting [7]), 1.38 10^7 M^−1. In addition, the “∆G” value in test [2] (setting [7]) was -13.07 kcal/mol. In test [3], the “redshift (bathochromic effect) of HSA UV absorbance” value (shortened to “redshift (bathochromic effect)”) is given as 6 nm. Moreover, the “% α-helix of HSA” value is given as 65.25% in test [4] (setting [8]); 63.82% in test [4] (setting [9]); 61.53% in test [4] (setting [10]); 56.66% in test [4] (setting [11]); 47.52% in test [4] (setting [12]).

`c1ccc2c(c1)[nH]c1cnccc12` [Hnor, 9H-pyrido[3,4-b]indole, reference compound]: in test [1] (HSA 5 µM), the “K SV, Stern–Volmer quenching constant” value is 2.95 10^5 M^−1 and the “K q, bimolecular quenching rate constant” value was 29.5 10^12 M^−1·s^−1. The “n, number of binding sites” value in test [1] (setting [5]) is 1.0. Moreover, in test [1] (modified Stern–Volmer equation, HSA 5 µM, pH 7.4, 25°C, read-out: K, binding constant (converted)), the Kd was 3.03 µM. The “∆G, standard free energy change of binding” value in test [1] was -7.505 kcal/mol.

As for `CC#N.F[P-](F)(F)(F)(F)F.[Ag+].c1ccc2c(c1)[nH]c1cnccc12.c1ccc2c(c1)[nH]c1cnccc12` [Compound 3, [Ag(Hnor)2(MeCN)](PF6)], the “K SV, Stern–Volmer quenching constant” value in test [1] (HSA 5 µM) is given as 4.53 10^5 M^−1. Also, the “redshift … of Tyr and Trp residues of HSA” value in test [1] (HSA 5 µM) came to 4 nm. For the same compound, the “K q, bimolecular quenching rate constant” value in test [1] (HSA 5 µM) is given as 45.3 10^12 M^−1·s^−1. In addition, the figures for the “K, binding constant” value in test [1] (setting [5]), in test [2] (setting [6]) and in test [2] (setting [7]) were 0.55 10^6 M^−1, 0.46 10^10 M^−1 and 0.08 10^10 M^−1, respectively. Also, the figures for the “n, number of binding sites” value in test [1] (setting [5]), in test [2] (setting [6]) and in test [2] (setting [7]) were 1.2, 1.55 and 1.41, respectively. The “∆G, standard free energy change of binding” value in test [1] is -7.823 kcal/mol. The “∆G” value is -13.18 kcal/mol in test [2] (setting [6]) and -12.19 kcal/mol in test [2] (setting [7]). The “K SV” value in test [2] (setting [6]) is recorded as 0.84 10^7 M^−1; in test [2] (setting [7]), 0.80 10^7 M^−1. Also, the “redshift (bathochromic effect)” value in test [3] was 5 nm. The “% α-helix of HSA” value is reported as 63.57% in test [4] (setting [8]); 62.57% in test [4] (setting [9]); 60.37% in test [4] (setting [10]); 56.31% in test [4] (setting [11]); 47.18% in test [4] (setting [12]).

Take `O=[N+]([O-])[O-].[K+]` [KNO3, reference compound]: the “effect of anion salt alone on HSA structure” value in test [2] is “negligible perturbance of the HSA structure”.

Take `[K+].[O-][Cl+3]([O-])([O-])[O-]` [KClO4, reference compound]: the “effect of anion salt alone on HSA structure” value in test [2] was “negligible perturbance of the HSA structure”.

In the case of `O=[N+]([O-])[O-].[Ag+].c1ccc2c(c1)[nH]c1cnccc12.c1ccc2c(c1)[nH]c1cnccc12` [Compound 2, [Ag(Hnor)2](NO3)], the “K SV, Stern–Volmer quenching constant” value in test [1] (HSA 5 µM) is 5.34 10^5 M^−1. The “redshift … of Tyr and Trp residues of HSA” value in test [1] (HSA 5 µM) amounted to 5 nm. Further, in test [1] (HSA 5 µM), the “K q, bimolecular quenching rate constant” value is on record as 53.4 10^12 M^−1·s^−1. The entries for the “K, binding constant” value in test [1] (setting [5]), in test [2] (setting [6]) and in test [2] (setting [7]) were 3.64 10^6 M^−1, 6.05 10^10 M^−1 and 0.66 10^10 M^−1, respectively. The “n, number of binding sites” value in test [1] (setting [5]) was found to be 1.0; in test [2] (setting [6]), 1.58; in test [2] (setting [7]), 1.53. Also, the “∆G, standard free energy change of binding” value in test [1] is -8.948 kcal/mol. For the same compound, the figures for the “K SV” value in test [2] (setting [6]) and in test [2] (setting [7]) were 1.29 10^7 M^−1 and 1.24 10^7 M^−1, respectively. Moreover, in test [2] (setting [7]), the “∆G” value is -13.4 kcal/mol. Further, the “redshift (bathochromic effect)” value in test [3] was found to be 5 nm. Further, the “% α-helix of HSA” value is on record as 62.85% in test [4] (setting [8]); 61.61% in test [4] (setting [9]); 58.41% in test [4] (setting [10]); 52.02% in test [4] (setting [11]); 42.73% in test [4] (setting [12]).
